# US20250325517A1, “ORAL DOSAGE FORMS OF ELRAGLUSIB” (Actuate Therapeutics, Inc., priority 2022, published 2025)
# Assay: Kinetic solubility of six ASDs in biorelevant media (SGF, FaSSIF, FeSSIF) at 37° C., 1 and 2 h
# Type: physicochemical
# Experimental: The three biorelevant media were: SGF, FaSSIF, and FeSSIF. These were prepared using procedure and FaSSIF/FeSSIF/FaSSGF Powder obtained from Biorelevant.com (https://biorelevant.com/learning_center/how-make-fassif/). A suspension of each ASD was prepared in SGF, FaSSIF, and FeSSIF and each was allowed to stir at 400 rpm. An aliquot of the supernatant was taken out at 1 and 2 hours, syringe filtered using a cellulose acetate filter ([…] pore size) and analyzed by HPLC. The solubilities of each ASD in SGF, FaSSIF, and FeSSIF are presented in Table 2A-8, Table 2A-9, and Table 2A-10, respectively. […] In addition, at 2 hours the remaining solids were analyzed by XRPD. […] These peaks correspond to residual FeSSIF buffer crystallizing on the ASD solids upon drying. (See Tables 2A-8, -9, and -10).
structure (smiles),measurement,setting,value
Cn1cc(C2=C(c3coc4ccc(F)cc34)C(=O)NC2=O)c2cc3c(cc21)OCO3 [NA],1 hr solubility in FeSSIF (n = 2),"37° C., 400 rpm",5 µg/mL
same,2 hr solubility in FeSSIF (n = 2),"37° C., 400 rpm",6 µg/mL
same,XRPD after FeSSIF,solids remaining at 2 hours,Form I + one peak ~9°
